Test results: patent US8318743B2, “Medicament for the enhancement of cognitive function and neuroprotection” (Egis Gyogyszergyar Nyilvanosan Mukodo Reszvenytarsasag, priority 2006, dated 2012)
Marks after values point to notes of the source that are not given here.

What was measured:
[1] = tested on: male gerbils; assay: global cerebral ischemia model by bilateral carotid artery occlusion, hippocampal CA1 neuronal damage; type: in vivo, gerbil; conditions: for proportion of the neuronal damage in CA1 region of the hippocampus / Effect %: 0.1 mg/kg ip.; for CA 1 lesion: 0.1 mg/kg ip. 45 minutes after surgery, average score on scale 0-6, four days after 3 min bilateral carotid occlusion; for Effect %: CA1 lesion score versus control animals
Method: The neuroprotective effect of 4-chloro-5-{2-[4-(6-fluoro-1,2-benz[d]isoxazole-3-yl)piperidin-1-yl]ethyl-amino}-2-methyl-3-(2H)pyridazinone of the Formula (I) was tested in gerbils by global cerebral ischemia model by bilateral occlusion of the carotid artery and in rats by focal cerebral ischemia model via the permanent occlusion of the central cerebral artery. Risperidone[3-(2-(4-(6-fluoro-1,2-benz[d]isoxazole-3-yl)-1-piperidinyl)ethyl)-6,7,8,9-tetrahydro-2-methyl-4H-pyrido[1,2-a]pyrimidin-4-one] of the Formula (II) was used as reference compound.
The tests in the global cerebral ischemia model were performed in male gerbils weighing 50-80 g. During surgery, the animals were anaesthetized with ether, and the carotid arteries were set free in the paratracheal region by a ventral incision in the central region. The carotid arteries were separated from the vagosympatic nerve-trunk and were occluded for 3 minutes using artery forceps and subsequently released. The body temperature of the animals was checked during surgery and was kept in the normal range using an infrared lamp (37.5±0.5° C.). The test substance 4-chloro-5-{2-[4-(6-fluoro-1,2-benz[d]isoxazole-3-yl)piperidin-1-yl]ethyl-amino}-2-methyl-3-(2H)pyridazinone of the Formula (I) and the reference substance risperidone of the Formula (II) were administered in a dose of 0.1 mg/kg intraperitoneally 45 minutes after surgery.
Four days after surgery, animals were anaesthetised using pentobarbital-Na (60 mg/kg ip., 10 ml/kg) and the brains were perfused with saline thorough the left ventricle. The perfusion was continued for an additional 30 minutes using fixative solution (200 ml/animal). The fixative solution contained 0.1% of glutaraldehyde, 4% of paraformaldehyde and 0.2% of picric acid in 0.1 M phosphate buffer (pH 7.4). After perfusion, the brains were removed from the skulls and were stored in the above-mentioned fixative solution for at least one week at 4° C. in a refrigerator.
The cerebral part containing the dorsal hippocampus has been dissected into 60-μm thick coronal sections using a freezing microtome. The sections were washed four times by shaking for 30 minutes in 0.1 M phosphate buffer (pH 7.4) during which the cerebral sections were floating in the washing solution. Subsequently the cerebral sections were stained using silver impregnation. The staining by the silver impregnation method comprises (a) immersing the sample into a preparatory solution twice for 5 minutes (the preparatory solution comprises aqueous 2% sodium hydroxide and 0.875% ammonium hydroxide solution); (b) immersing the sample into the impregnating solution for 10 minutes (solution of 0.875% ammonium hydroxide and 0.5% silver nitrate in water), (c) washing the sample twice for 2 minutes and finally for one minute in the solution of 0.5% of sodium carbonate and 0.01% ammonium nitrate in aqueous 29.1% ethanol); (d) development for one minute by immersing the section into a development solution (1-1.5% formaldehyde and 0.01% ammonium nitrate in 9.9% ethanol), (e) fixation three times for three minutes each in 0.5% acetic acid solution. The stained cerebral sections were placed into 0.1 M phosphate buffer (pH 7.4) and subsequently chromic gelatine, mounted on slides and dehydrated (dried), treated with xylene for 10 minutes and the cover plates were attached using DPX histological adhesive (Fluka).
The bilateral neuronal damage in the CAl region of the hippocampus have been evaluated on a six-score scale as follows: 0—no damage observed; 1—0-10% neuronal damage; 2—10-30% neuronal damage; 3—30-50% neuronal damage; 4—50-70% neuronal damage; 5—70-90% neuronal damage; 6—90-100% neuronal damage. The average scores measured in the treated group were expressed in the percentage of the average scores observed in the case of the control animals. The statistical evaluation was carried out by non-parametric Mann-Whitney U-test.

[2] = tested on: rats; assay: object recognition test; type: in vivo, rat
Source text: The object recognition test in rats is based on the observation that when animals are encountered with unknown environment, they scour around and discover the available area. They act similarly in case of unknown objects arranged within their area.
In the present experimental arrangement, one day prior to the actual testing day, animals are placed in a box where they have two minutes to get acquainted with the surroundings. On the first day of the experiment, two identical objects (in the present arrangement, a plastic rinse bottle and a glass bottle) are placed in the box and the length of the period is determined during which the animals spend time while examining the two objects. The length of test period is 4-5 minutes. The difference between the length of the time periods spent with the examination of each object is the so-called discrimination index.
On the second day (24 hours after the first testing period) of the experiment, two different objects are placed in the box, among which one is known for the animals and the other is unknown.
In the case when a memory-enhancing drug is administered to the animals on the first day (e.g. orally, 60 minutes prior to testing), the animals are able to recall the already known objects better and the discrimination index is increased in favour of the unknown object.

[3] = tested on: male Wistar rats; assay: passive avoidance test (step-through); type: in vivo, rat; conditions: for effect on memory in passive avoidance: 0.005 mg/kg p.o.
Method: The passive avoidance tests were carried out in male Wistar rats weighing 200 to 220 g (Charles River, Budapest). The experimental animals were kept in a room having a circadian light-dark periods of 12-12 hours. The light was switched on at 6:00 am. The relative humidity of the room was 60±10%.
The tests were carried out in a so-called step-through type apparatus with five channels which is suitable for testing of passive avoidance learning.
The apparatus comprises two plexiglass boxes of 20×20×16 cm. One of the boxes is clear, the other one is non-transparent, black-painted. There exists a separating wall between the boxes having an opening of 7.5×8 cm. The opening can be opened or closed by a computer-controlled shutter door. The transition of the rat from one box into the other is detected by two parallel photocell rows and the door is automatically shut after the transition of the animal. The floor of the black-painted box consists of stainless steel rods equipped with an electrical circuit suitable for the delivery of an electric shock. There is a 10-W bulb above the door at the light (transparent) side of the apparatus.
The tests were carried out on two subsequent days with a 24-hour time difference.
The first part of the test is the so-called acquisition period, wherein the animal is able to gain specific information characteristic to the situation (upon entry into the dark box, an electric shock is delivered). The second part of the test is the so-called retention period. In this stage, the ability of the animal to remember the information which was collected in the first part is tested (upon entry into the dark part, an electric shock will be delivered, therefore it is less traumatic to stay in the light compartment).
On the first day of the testing (acquisition period), the numbered animals are placed into the clear compartment of the apparatus while the shutter door is closed. After 30 seconds, the door is opened and the animal could freely enter the dark box. At the same time, the clock for the measurement of the transition latency was started. The transition latency is the period of time which elapses between the opening of the shutter door and the transition of the animal from the light compartment into the dark one. When the animal entered the dark box, the clock measuring the latency is stopped. 3 seconds after the entry into the dark compartment, an electric shock of 0.4 mA is delivered for 10 seconds to the animals in the form of a paw shock. Animals belonging to the absolute control groups were not delivered a paw shock. After the electric shock, the animals were immediately removed from the apparatus. A 180-sec period was available for the animals to enter the dark compartment. […] This is the essence of acquisition.
During the second-day test (retention) after 24 hours, the animals were placed into the apparatus again. The subsequent part of the procedure was identical to that performed on the first day with the only difference that except for one group, no electric shock was delivered to the animals. Similarly to the first day, 180 sec was provided for the animals to enter the dark box.
During the tests directed to the determination of the effect of 4-chloro-5-{2-[4-(6-fluoro-1,2-benz[d]isoxazole-3-yl)piperidin-1-yl]ethyl-amino}-2-methyl-3-(2H)pyridazinone of the Formula (I), the experimental animals were treated with the test substance and the reference substance or with vehicle (0.4% methylcellulose) on the second day, 60 minutes before placing the animals into the apparatus. The treatment was carried out orally at a dose of 0.005 mg/kg in a volume of 5 ml/kg.
The statistical evaluation was carried out with multiple way variance analysis. The differences between groups were analyzed by Duncan-test.

[4] = 0.4 mA/10 sec electric shock + treatment 0.005 mg/kg p.o. 60 minutes before test
[5] = treatment 0.005 mg/kg p.o. without electric shock

## Cn1ncc(NCCN2CCC(c3noc4cc(F)ccc34)CC2)c(Cl)c1=O [Formula (I), 4-chloro-5-{2-[4-(6-fluoro-1,2-benz[d]isoxazole-3-yl)piperidine-1-yl]ethyl-amino}-2-methyl-3-(2H)pyridazinone]
[1]
  proportion of the neuronal damage in CA1 region of the hippocampus: significantly decreased
  CA 1 lesion: 2.80**
  Effect %: −46%
[2]; 0.01 mg/kg
  memory functions in object recognition: significantly enhanced
[2]; 0.01 mg/kg p.o., Day 1
  Discrimination index(s) Day 1: 0.4 ± 0.8 s
[2]; 0.01 mg/kg p.o., Day 2 (24 hours after first testing)
  Discrimination index(s) Day 2: 10.9 ± 1.4 s
[3]
  effect on memory in passive avoidance: significantly improved the memory
[3]; [4]
  Transition latency First Day sec ± SE: 155.9 ± 15.5^++ sec
[3]; [5]
  Transition latency First Day sec ± SE: 21.2 ± 8.8 s

## Cc1nc2n(c(=O)c1CCN1CCC(c3noc4cc(F)ccc34)CC1)CCCC2 [Risperidone, 3-(2-(4-(6-fluoro-1,2-benz[d]isoxazole-3-yl)-1-piperidinyl)-ethyl)-6,7,8,9-tetrahydro-2-methyl-4H-pyrido[1,2-a]pyrimidin-4-one, reference compound]
[1]
  proportion of the neuronal damage in CA1 region of the hippocampus: ineffective
  CA 1 lesion: 4.67
  Effect %: −2%
[3]
  effect on memory in passive avoidance: did not exhibit any effect
[3]; [4]
  Transition latency First Day sec ± SE: 85.5 ± 22.0 s
[3]; [5]
  Transition latency First Day sec ± SE: 36.1 ± 15.9 s
